Measurements as given in patent publication US20070245431A1, “POLYUNSATURATED FATTY ACID PRODUCTION IN HETEROLOGOUS ORGANISMS USING PUFA POLYKETIDE SYNTHASE SYSTEMS” (priority 2006, published 2007).

Experiments:
[1] = system: acyl-CoA synthetases; assay: In vitro activity assay of Schizochytrium FAS-KO cell free homogenate with Triacsin C (HIP extraction, normal phase TLC); type: biochemical; conditions: Triacsin C 0, 25, 100 or 200 uM, 10 minutes, then ATP and Mg+2, additional 20 minutes; effect at higher concentrations
Protocol: An example of a protocol for preparation of cell free homogenates (CFH) from the cell wall deficient strains of Schizochytrium is as follows. Cells were grown in A50-3 medium and then diluted into M2B medium. The media used for growing the KO strains were supplemented with the appropriate fatty acid. Cells were grown to an OD600 nm of >˜2.5 and <˜5 in the M2B media. Cells in 50 mL of culture medium were collected by centrifugation (table top centrifuge—˜1200 rpm×4 minutes) in 50 mL plastic tubes. The supernatant was decanted and the cells resuspended 5 mL Buffer A (100 mM Phosphate pH 7.2, 10% (w/v) glycerol, 1 mM EDTA and 2 mM DTT) and centrifuged as before. The supernatant was discarded and the cells resuspended in ice cold 5 mL Buffer A. The suspension was sonicated (Ultrasonic Processor Model GE130 with microtip, Pulser at 2 seconds, ˜1 Watt power setting) with tube on ice for 1.5 minutes. The sample was checked by microscopy to ensure that all of the cells were broken. The CFH was aliquoted in 200 uL portions into 0.5 mL PCR tubes with caps and frozen by dropping into liquid N2. Samples were stored at −74° C. until needed.
An example of a protocol for in vitro activity assays of both FAS and PUFA synthase activities is as follows. […]

[2] = system: yeast; assay: Fatty acid profile (GC of FAMEs) of yeast strains grown without or with cerulenin (FAS inhibition); type: cell-based, Saccharomyces cerevisiae
Excerpt: The present inventors tested the effects of cerulenin on fatty acid profiles of the strains of yeast described in Example 8 as a model of the concept of reduction of FAS activity. The yeast described in Example 9, which also contained an acyl CoA-synthetase, were additionally tested in this system, to determine whether the effects of the two strategies would additively or synergistically increase PUFA production.
Initial experiments indicated the maximum effect (i.e., as an increase in PUFAs as a percentage of the total fatty acid profile) was obtained at a concentration of 4 uM cerulenin. The cerulenin was added 4 hours after transfer to the galactose induction medium. Cells were harvested 19 hr after transfer to induction medium, freeze dried, FAMES prepared and analyzed by GC.
The yeast strains tested were: • Strain 5.5 contained the PUFA synthase genes (sOrfA, sOrfB, OrfC and Het I), as described in Example 8 above; and • Strain 5.6 contained the PUFA synthase gene set of Strain 5.5, plus the ScACoAS-1 (SEQ ID NO:82), as described in Example 9 above.
Referring to Table 2, “0 Cer” indicates cerulenin was not added, and “4 uM Cer” indicates the media was made to 4 uM cerulenin 4 hours after transfer to the induction medium). Each strain was evaluated for fatty acid production in the presence and absence of the cerulenin, to evaluate the effect of the inhibition of the FAS pathway on PUFA production. […] The values are given as a percentage of the total fatty acids detected. DHA and DPAn-6, which are the products of the Schizochytrium PUFA PKS system, were the only PUFAs present in the profiles. FIGS. 9 and 10 illustrate the amount of DHA (FIG. 9) or DHA and DPAn-6 (FIG. 10; white bars are DHA; black bars are DHA+DPAn-6) produced by the yeast, as a percentage of total FAME.

[3] = system: Schizochytrium; assay: Knock out of the DAGAT gene in Schizochytrium, lipid profile; type: cell-based; conditions: inactivation of the DAGAT gene in Schizochytrium

CCC/C=C/C/C=C/C=C/C=N/NN=O [Triacsin C]
loss of radiolabel from the FFA band [1]: blocked the loss of radiolabel from the FFA band

C/C=C/C/C=C/CCC(=O)[C@H]1O[C@H]1C(N)=O [cerulenin]
DHA level, of total fatty acids ([2]; cells expressing both the PUFA synthase and ScACoAS-1 genes grown in 4 uM cerulenin (4.1% without)): 8.2%
DHA level ([2]; cells with just the PUFA synthase system grown in 4 uM cerulenin (1.2% without)): 3.7%
concentration giving the maximum effect (increase in PUFAs as a percentage of the total fatty acid profile) ([2]; initial experiments): 4 µM

B1: DAGAT: Schizochytrium diacylglycerol acyltransferase, SEQ ID NO:100/101 (protein, listed as Schizochytrium sp.)
chain: MERPQAQASPARSEARRRRGDRSKGFADEDGETSVNTPNGMQTPYSTSMGSVSSYSSSGDYAMSEAEGSEVDPADDRMGDSIGSKPSSSSVTGRRRLTQEERDYFLRLEKEWREEDAWADQPGSWYSMLAWMPVLIGLRVFNVLLSIAFWPVSFVARVFFGKKIHTVSFWDVPLSRRKQTAVVLLFVMLLPMVVVVYSWTLVLLLFPLTTFPTLCYMVWIIYVDKSPETGSRRPFLRYWKMWRHFANYFPLRLIRTTPLDSRRKYVFCYHPHGIISLGAFGNFATDSTGFSRKFPGIDLRVLTLALNFYCPLLREFLLYLGLCSAAKKSCNQILQRGPGSAIMLVVGGAAESLDSQPGTYRLTLGRKGFVRVALDNGADLVPVLAFGENDVFDTVYLPPNSWARNVQEFVRKKLGFATPIFSGRGIFQYNMGLMPHRRPIIVVVGKPIKMPKIPDELKGRALSTTAEGVALVDKYHEKYVKALRELWNLYKERWAVHRQGSLLIQK
reduction in TAG [3]: ~90%
reduction in mg FAME/gm biomass [3]: ~80%
